Experimental data from patent US20230064324A1, “NEW USES FOR STEVIOL” (SUNTORY HOLDINGS LIMITED, priority 2019, published 2023).

Test system: PC12 cells (clone HS)
Assay: Neurite elongation-promoting effect on PC12 cells (neurite length per cell, Operetta CLS)
Assay type: cell-based, Rat
Details: for Relative neurite length (%): 3 days, negative control=100%
Method: PC12 cells (clone HS) were precultured using a growth medium in the same manner as in Example 1. […] The cells thus cultured were subjected to cell membrane staining using Cell Membrane Stain attached to Neurite Outgrowth Staining Kit (Thermo Fisher Scientific Inc.) and nuclear staining using Hoechst 33342 (Cat. No. H3570). Specifically, the medium was replaced with 100 μL of a fixative and staining solution (prepared by adding a 1/1000 amount each of Cell Membrane Stain (1000×) and Hoechst 33342 and a 1/25 amount of a formaldehyde solution (Cat. No. 061-00416, FUJIFILM Wako Pure Chemical Corp.) to DPBS (++) (Cat. No. 14040133, Thermo Fisher Scientific Inc.)), followed by incubation for 20 minutes in a CO2 incubator (5% CO2, 37° C., humid). […] Photographing and quantitative analysis were carried out using Operetta CLS (Perkin Elmer, Inc.), and a neurite length per cell was calculated. Nine fields of view at the center of each well were photographed using a 10× objective lens. A test medium supplemented with 50 ng/mL NGF was used as a positive control, and a vehicle control composed of a differentiation medium supplemented with 0.1% DMSO (final concentration) was used as a negative control.

In the case of `C=C1C[C@@]23CC[C@H]4[C@@](C)(CCC[C@@]4(C)C(=O)O)[C@@H]2CC[C@]1(O)C3` [Steviol], the “neurite elongation (in words)” value (PC12 cells, varying concentrations of steviol) is reported as “promoted neurite elongation in a concentration-dependent manner”, the “Relative neurite length (%)” value (steviol 12.5 μg/mL) is reported as 133.3% and the “Relative neurite length (%)” value (steviol 25 μg/mL) is reported as 180.9%. For the same molecule, the “Relative neurite length (%)” value (steviol 50 μg/mL) was 235.2%, the “Relative neurite length (%)” value (steviol 100 μg/mL) was 307.7% and the “Relative neurite length (%)” value (steviol 200 μg/mL) was 308.6%.
